The structures appear in SMILES notation.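 Five concentrations, 48 hours, 96-well plates. GI50: concentration for 50% inhibition of growth.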 Active and inactive are the calls of the source. Rule as the data show it: active = GI50 up to about 1.1 µM and inactive = higher. A value given as a limit tells only on which side of the number the result lay.

Results on seven compounds are retold here after ChEMBL document CHEMBL1201862, “PubChem BioAssay data set” (2004).

Some test systems named below: OVCAR-5; CCRF-CEM; U-251; PC-3; NCI-H522; MDA-MB-435; M14; HOP-92; HCT-15; A549; SN12C; MCF7; NCI-H460; SW-620; HCT-116; MDA-N; SR; EKVX; UACC-62; SF-295.
Holding throughout (assay): NCI tumour cell line growth inhibition, 48 h

As to `CC1=C(C#N)C(=O)N(/N=C/c2ccc(Cl)cc2)C(=O)/C1=c1\o/c(=C2/C(=O)N(/N=C/c3ccc(Cl)cc3)C(=O)C(C#N)=C2C)c2nccnc12`, the GI50 is > 100 µM (inactive) with OVCAR-5; 70.3 µM (inactive) in the experiment on CCRF-CEM; > 100 µM (inactive) in the experiment with U-251; 60.7 µM (inactive) in the experiment with PC-3; > 100 µM (inactive) in the experiment with NCI-H522; > 100 µM (inactive) with MDA-MB-435. In addition, the GI50 with M14 was > 100 µM (inactive); in the experiment with HOP-92, > 100 µM (inactive); in the experiment with HCT-15, 82 µM; in the experiment on A549, > 100 µM (inactive); with SN12C, > 100 µM (inactive); with MCF7, 70.5 µM (inactive). For the same compound, the GI50 was > 100 µM (inactive) in the experiment on NCI-H460; > 100 µM (inactive) with SW-620; 76.7 µM (inactive) with HCT-116; 77.3 µM (inactive) with MDA-N; 80.5 µM (inactive) in the experiment with SR; > 100 µM (inactive) in the experiment on EKVX. The GI50 with UACC-62 and in the experiment on SF-295 was > 100 µM (inactive) each time.
In the case of `N#C/C(=C\c1ccc2[nH]ccc2c1)C(=O)c1ccc(O)c(O)c1`, the GI50 is > 73.8 µM (inactive) in the experiment with OVCAR-5; 24.5 µM (inactive) in the experiment with CCRF-CEM; 41.6 µM (inactive) in the experiment on U-251; > 100 µM (inactive) with PC-3; 29.4 µM (inactive) in the experiment with NCI-H522; 71.8 µM (inactive) in the experiment with MDA-MB-435. Moreover, the GI50 with M14 is > 63.1 µM (inactive); with HOP-92, 53 µM (inactive); with HCT-15, 51.4 µM; with A549, > 57.7 µM (inactive); in the experiment with SN12C it was > 82.4 µM (inactive); in the experiment with MCF7 it was 34.8 µM (inactive). Besides, the GI50 with NCI-H460 is 37 µM (inactive); in the experiment on SW-620 it was 55.2 µM (inactive); in the experiment on HCT-116 it was > 53.6 µM (inactive); in the experiment with MDA-N, > 100 µM (inactive); with SR, 44.2 µM (inactive); with EKVX, 57.9 µM (inactive). Besides, the values for the GI50 in the experiment on UACC-62 and with SF-295 were 70 µM (inactive) and 61.4 µM (inactive), respectively.
As to `COc1ccc(CCNCCCC2c3ccccc3-c3ccccc32)cc1OC`, the GI50 with OVCAR-5 was 19.2 µM (inactive); in the experiment with CCRF-CEM, 24.3 µM (inactive); in the experiment on U-251, 12.9 µM (inactive); in the experiment on PC-3, 16.3 µM (inactive); in the experiment with NCI-H522, 15.9 µM (inactive); with MDA-MB-435, 14.7 µM (inactive). Besides, the GI50 in the experiment on M14 is 4.8 µM (inactive); with HOP-92 it was 5.71 µM (inactive); in the experiment with HCT-15, 14.8 µM; in the experiment with A549 it was 16.1 µM (inactive); with SN12C it was 15 µM (inactive); with MCF7 it was 6.7 µM (inactive). Also, the GI50 with NCI-H460 was 7.16 µM (inactive); in the experiment on SW-620, 7.33 µM (inactive); in the experiment with HCT-116 it was 12.6 µM (inactive); in the experiment on MDA-N, 16.7 µM (inactive); in the experiment with SR, 8.22 µM (inactive); with EKVX, 16.3 µM (inactive). Besides, the values for the GI50 in the experiment on UACC-62 and with SF-295 were 16.4 µM (inactive) and 15.6 µM (inactive), respectively.
Consider `COc1cc2cc(C(=O)N3CC(CCl)c4ccccc43)[nH]c2c(OC)c1OC` (stereo not given), for which the GI50 with OVCAR-5 is > 100 µM (inactive); in the experiment on CCRF-CEM, > 36.6 µM (inactive); in the experiment with U-251 it was > 69.2 µM (inactive); with PC-3, 21.9 µM (inactive); in the experiment with NCI-H522, 17.2 µM (inactive); in the experiment on MDA-MB-435 it was 19.2 µM (inactive). Besides, the GI50 in the experiment with M14 is 62.5 µM (inactive); in the experiment with HOP-92, > 100 µM (inactive); in the experiment on HCT-15 it was 24.1 µM; in the experiment with A549, 47.1 µM (inactive); in the experiment on SN12C it was 5.6 µM (inactive); in the experiment on MCF7 it was 32.2 µM (inactive). Moreover, the GI50 was 17.5 µM (inactive) in the experiment on NCI-H460; 60.1 µM (inactive) in the experiment with SW-620; 67.9 µM (inactive) in the experiment with HCT-116; 40.5 µM (inactive) in the experiment with MDA-N; 18.1 µM (inactive) in the experiment on SR; > 66.1 µM (inactive) in the experiment with EKVX. The GI50 with UACC-62 is 55.5 µM (inactive); in the experiment with SF-295 it was 70.3 µM (inactive).
On to `Cc1ccc(C(=O)O)cc1S(=O)(=O)Nn1cnc2ccc(S(=O)(=O)Nc3ccccc3C(=O)O)cc2c1=O`, for which the GI50 is 54.6 µM (inactive) in the experiment on OVCAR-5; > 100 µM (inactive) with CCRF-CEM; > 100 µM (inactive) in the experiment on U-251; 16.6 µM (inactive) with PC-3; > 100 µM (inactive) in the experiment with NCI-H522; > 100 µM (inactive) in the experiment with MDA-MB-435. In addition, the GI50 is 18.3 µM (inactive) with M14; > 100 µM (inactive) in the experiment with HOP-92; more than 100 µM with HCT-15; > 100 µM (inactive) in the experiment on A549; > 100 µM (inactive) in the experiment with SN12C; > 100 µM (inactive) in the experiment with MCF7. Further, the GI50 with NCI-H460 is > 100 µM (inactive); in the experiment on SW-620, > 100 µM (inactive); with HCT-116, 46.1 µM (inactive); in the experiment on MDA-N, 47.3 µM (inactive); in the experiment with SR it was > 100 µM (inactive); in the experiment on EKVX it was > 100 µM (inactive). Further, the GI50 was 8.93 µM (inactive) in the experiment on UACC-62 and 26.1 µM (inactive) in the experiment on SF-295.
As to `CC(C)=CCc1c(OC(=O)c2c(C)cc(O)cc2O)cc(CO)c(CO)c1O`, the GI50 was 20.4 µM (inactive) with OVCAR-5; > 10 µM (inactive) with CCRF-CEM; 17.5 µM (inactive) in the experiment with U-251; 18 µM (inactive) in the experiment on PC-3; 18 µM (inactive) in the experiment with NCI-H522; 17.7 µM (inactive) in the experiment with MDA-MB-435. Besides, the GI50 in the experiment with M14 is 20.8 µM (inactive); with HOP-92, 17.7 µM (inactive); in the experiment with HCT-15, 17.7 µM; with A549, 6.43 µM (inactive); in the experiment with SN12C, 18.5 µM (inactive); with MCF7, 24 µM (inactive). The GI50 is 17.6 µM (inactive) in the experiment on NCI-H460; > 10 µM (inactive) with SW-620; 20.9 µM (inactive) in the experiment with HCT-116; 19.1 µM (inactive) in the experiment with MDA-N; 20.7 µM (inactive) in the experiment on SR; 32.4 µM (inactive) with EKVX. The results for the GI50 in the experiment on UACC-62 and in the experiment on SF-295 were 15.2 µM (inactive) and 17.2 µM (inactive), respectively.
`CCOC(=O)C1C(=O)CC(C)(O)C(C(=O)OCC)C1c1ccc(OC)cc1` (stereo not given): the GI50 with OVCAR-5, in the experiment on CCRF-CEM, in the experiment with U-251, in the experiment with PC-3, with NCI-H522 and with MDA-MB-435 was > 100 µM (inactive) in each case. Further, the GI50 in the experiment with M14 is > 100 µM (inactive); in the experiment on HOP-92, > 100 µM (inactive); with HCT-15 it was more than 100 µM; with A549, > 100 µM (inactive); in the experiment on SN12C it was > 100 µM (inactive); with MCF7, > 100 µM (inactive). The GI50 in the experiment with NCI-H460, with SW-620, with HCT-116, in the experiment with MDA-N, in the experiment with SR and in the experiment on EKVX was > 100 µM (inactive) throughout. For the same compound, the GI50 with UACC-62 and with SF-295 was > 100 µM (inactive) throughout.
